Data taken from patent publication US11236084B2, “Substituted azaindoline derivatives as NIK inhibitors” (Janssen Pharmaceutica NV, priority 2017, dated 2022).
Like-named read-outs stand apart in the source and are kept apart here.

Tests used:
[1] = target: T1, recombinant human NF-kappaB-inducing kinase (NIK/MAP3K14) (Homo sapiens, UniProt Q99558); experiment: Biological Assay A: inhibition of recombinant human NF-kappaB-inducing kinase (NIK/MAP3K14) activity (MBP phosphorylation, Mesoscale); settings: MSD MBP; averaged over all measurements on all batches; read-out: Assay A Biochemical (MSD MBP) IC50
Protocol: Pharmacological Part Biological Assay A Inhibition of Recombinant Human NF-kappaB-Inducing Kinase (NIK/MAP3K14) Activity
Assay buffer was 50 mM Tris pH 7.5 containing 1 mM EGTA (ethylene glycol tetraacetic acid), 1 mM DTT (dithiothreitol), 0.1 mM Na3VO4, 5 mM MgCl2, 0.01% Tween® 20. Assays were carried out in 384 well Mesoscale high binding plates which had been coated with myelin basic protein (MBP) and blocked with bovine serum albumin to prevent non-specific protein binding. All compounds tested were dissolved in dimethyl sulfoxide (DMSO) and further dilutions were made in assay buffer. Final DMSO concentration was 1% (v/v) in assays. Incubations consisted of compound (1% DMSO in control and blank wells), 25 μM […] (ATP), and 10 nM NIK/MAP3K14 substituting enzyme with buffer in the blank wells. Incubations were carried out for 1 h at 25° C. and were followed by washing and sequential incubation with rabbit anti-phospho-MBP and anti-rabbit Ig Sulfotag antibody before reading bound Sulfotag on a Mesoscale Discovery. Signal obtained in the wells containing blank samples was subtracted from all other wells and […] were determined by fitting a sigmoidal curve to % inhibition of control versus Log10 compound concentration.
(§1) Data for the compounds of the invention in the above assays are provided in Table A (the values in Table are averaged values over all measurements on all batches of a compound; values as IC50 (nM)). (‘n.c.’ means not calculated: ‘Co.’ means compound)

[2] = target: T1, recombinant human NF-kappaB-inducing kinase (NIK/MAP3K14); experiment: Biological Assay B: inhibition of auto-phosphorylation of recombinant human NIK/MAP3K14 (AlphaScreen), performed at 2 locations; format: biochemical; settings: location 1; AlphaScreen auto-phosphorylation; averaged values; read-out: Assay B location 1 IC50
In short: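 GST-tagged NIK (0.2 nM) auto-phosphorylation with 25 microM ATP in 50 mM Tris pH 7.5, 5 mM MgCl2, 1% DMSO, 1 h at 25° C. Anti-phospho-IKK Ser176/180 AlphaScreen readout; blank-subtracted IC50 from sigmoidal fit. Run at two sites.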

[3] = system: P-IKKα levels in L363 (NIK translocated multiple myeloma) cells; experiment: Biological Assay C: effect of compounds on P-IKKα levels in L363 (NIK translocated multiple myeloma) cells, performed at 2 locations; format: cell-based, human; settings: L363 cells, P-IKKα levels, averaged values, read-out: Assay C location 2 IC50
Protocol: Effect of Compounds on P-IKKα Levels in L363 (NIK Translocated Multiple Myeloma) Cells
All compounds tested were dissolved in DMSO and further dilutions were made in culture medium. Final DMSO concentration was 1% (v/v) in cell assays. The human L363 cells (ATCC) were cultured in RPMI 1640 medium supplemented with GlutaMax and 10% fetal calf serum (PAA). Cells were routinely maintained at densities of 0.2×10^6 cells per ml-1×10^6 cells per ml at 37° C. in a humidified 5% CO2 atmosphere. Cells were passaged twice a week splitting back to obtain the low density. Cells were seeded in 96 well plates (Nunc 167008) at 2×10^6 per ml media in a volume of 75 μl per well plus 25 μl […] recombinant human B-cell activating factor (BAFF/BLyS/TNFSF13B). Seeded cells were incubated at 37° C. in a humidified 5% CO2 atmosphere for 24 hr. Drugs and/or solvents were added (20 μl) to a final volume of 120 μl. Following 2 hr treatment plates were removed from the incubator and cell lysis was achieved by the addition of 30 μl 5× lysis buffer followed by shaking on a plate shaker at 4° C. for 10 min. At the end of this incubation lysed cells were centrifuged at 800×g for 20 min at 4° C. and the lysate was assessed for P-IKKα levels by sandwich immuno-assay carried out in anti-rabbit antibody coated Mesoscale plates. Within an experiment, the results for each treatment were the mean of 2 replicate wells. For initial screening purposes, compounds were tested using an 8 point dilution curve (serial 1:3 dilutions). For each experiment, controls (containing MG132 and BAFF but no test drug) and a blank incubation (containing MG132 and BAFF and 1 μM ADS125117, a test concentration known to give full inhibition) were run in parallel. The blank incubation value was subtracted from all control and sample values. To determine the IC50 a sigmoidal curve was fitted to the plot of % inhibition of control P-IKKα levels versus Log10 compound concentration.
Assay C was performed at 2 different locations.
as §1

[4] = Homo sapiens, L-363, location 2

T1 sequence (Q99558 whole entry): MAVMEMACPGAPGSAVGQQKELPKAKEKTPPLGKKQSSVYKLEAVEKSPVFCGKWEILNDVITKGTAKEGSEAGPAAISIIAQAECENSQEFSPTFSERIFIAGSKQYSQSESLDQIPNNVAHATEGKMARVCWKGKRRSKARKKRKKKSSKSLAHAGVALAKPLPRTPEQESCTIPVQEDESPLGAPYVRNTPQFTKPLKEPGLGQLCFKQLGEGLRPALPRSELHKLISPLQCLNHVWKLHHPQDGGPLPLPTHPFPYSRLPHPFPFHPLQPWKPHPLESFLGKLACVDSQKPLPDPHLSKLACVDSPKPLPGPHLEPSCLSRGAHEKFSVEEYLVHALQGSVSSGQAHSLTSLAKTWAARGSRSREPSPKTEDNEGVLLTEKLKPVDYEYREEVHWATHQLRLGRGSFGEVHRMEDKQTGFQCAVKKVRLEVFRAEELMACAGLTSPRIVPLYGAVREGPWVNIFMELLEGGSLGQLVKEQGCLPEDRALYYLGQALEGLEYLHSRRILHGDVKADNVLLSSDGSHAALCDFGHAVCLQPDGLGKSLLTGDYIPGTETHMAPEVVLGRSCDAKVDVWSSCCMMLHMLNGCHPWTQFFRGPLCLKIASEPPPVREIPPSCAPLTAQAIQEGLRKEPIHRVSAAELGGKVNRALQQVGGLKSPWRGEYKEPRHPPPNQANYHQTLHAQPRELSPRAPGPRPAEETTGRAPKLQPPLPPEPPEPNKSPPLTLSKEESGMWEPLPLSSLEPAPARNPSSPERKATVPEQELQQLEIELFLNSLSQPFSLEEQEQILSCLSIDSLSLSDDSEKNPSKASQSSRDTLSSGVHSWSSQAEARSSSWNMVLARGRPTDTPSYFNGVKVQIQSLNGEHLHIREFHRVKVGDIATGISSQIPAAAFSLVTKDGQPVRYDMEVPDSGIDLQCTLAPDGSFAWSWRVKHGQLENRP

Compound | IC50 [1] [µM] | IC50 [2] [µM] | IC50 [3, 4] [µM] | IC50 ([3]; location 2) [µM]
Cc1cc(C(=O)O)ccc1Nc1nccc(-c2cnc3c(c2)C(C)(C)CN3)n1 [Compound 97] | ~0.501 | > 10 |  | 
CC1(C)CNc2ncc(-c3ccnc(Nc4ccc(C(=O)NC5CCOCC5)cc4C(F)(F)F)n3)cc21 [Compound 94] | 0.347 |  | ~10 | 
Cc1cc(C(=O)N2CC(C)(O)C2)ccc1Nc1nccc(-c2cnc3c(c2)C(C)(C)CN3)n1 [Compound 80] | 0.0398 |  | 0.646 | 
CCC(=O)NCc1ccc(Nc2nccc(-c3cnc4c(c3)C(C)(C)CN4)n2)c(C)c1 [Compound 74] | 0.0068 |  | 0.0676 | 
Cc1cc(C#N)ccc1Nc1nccc(-c2cnc3c(c2)C(C)(C)CN3)n1 [Compound 115] | 0.457 |  |  | 
CC1(C)CNc2ncc(-c3ccnc(Nc4ccc(C(=O)N5CCC(C#N)CC5)cc4OC(F)F)n3)cc21 [Compound 128] | 0.0079 |  | 0.191 | 
CC1(C)CNc2ncc(-c3ccnc(Nc4ccc(C(=O)NC5CCOCC5)cc4Cl)n3)cc21 [Compound 104] | 0.0617 |  | 0.398 | 
Cc1cc(C(=O)N2CCC(C#N)CC2)ccc1Nc1nccc(-c2cnc3c(c2)C(C)(C)CN3)n1 [Compound 99] | 0.0074 |  | 0.144 | 
Cc1c(CNC(=O)C(C)C)cccc1Nc1nccc(-c2cnc3c(c2)C(C)(C)CN3)n1 [Compound 65] | 0.024 |  | 0.617 | 
Cc1cc(C(=O)N2CCC(C(C)(C)O)CC2)ccc1Nc1nccc(-c2cnc3c(c2)C(C)(C)CN3)n1 [Compound 98] | 0.0135 |  | 0.0933 | 
COC1CCN(C(=O)c2ccc(Nc3nccc(-c4cnc5c(c4)C(C)(CO)CN5)n3)c(C)c2)CC1 (stereo not drawn) [Compound 133] | 0.0058 |  |  | 0.129
CC(=O)NCc1ccc(Nc2nccc(-c3cnc4c(c3)C(C)(C)CN4)n2)c(OC(F)(F)F)c1 [Compound 77] | 0.0562 |  | 0.126 | 
COCC(=O)NCc1cccc(Nc2nccc(-c3cnc4c(c3)C(C)(C)CN4)n2)c1C [Compound 66] | 0.0107 |  | 0.363 | 
COc1c(Nc2nccc(-c3cnc4c(c3)C(C)(C)CN4)n2)cccc1C(=O)N1CCOCC1 [Compound 112] | 0.417 |  |  | 
CN1CCC(NC(=O)c2ccc(Nc3nccc(-c4cnc5c(c4)C(C)(C)CN5)n3)c(C(F)(F)F)c2)CC1 [Compound 91] | 0.339 |  | > 10 | 
Cc1cc(N2CCOCC2)ccc1Nc1nccc(-c2cnc3c(c2)C(C)(C)CN3)n1 [Compound 117] | 0.162 |  | > 10 | 
CN1CCC(NC(=O)c2ccc(Nc3nccc(-c4cnc5c(c4)C(C)(C)CN5)n3)c(Cl)c2)CC1 [Compound 103] | 0.155 |  | 3.09 | 
CC(=O)NCc1ccc(Nc2nccc(-c3cnc4c(c3)C(C)(C)CN4)n2)c(Cl)c1 [Compound 72] | 0.0065 |  | 0.0537 | 
COCCNC(=O)c1cc(OC)cc(Nc2nccc(-c3cnc4c(c3)C(C)(C)CN4)n2)c1C [Compound 106] | 0.0159 |  | 0.0955 | 
COc1ccc(C)c(Nc2nccc(-c3cnc4c(c3)C(C)(C)CN4)n2)c1CNC(C)=O [Compound 135] | > 10 |  |  | 
CCC(=O)NCc1cccc(Nc2nccc(-c3cnc4c(c3)C(C)(C)CN4)n2)c1C [Compound 64] | 0.0135 |  | 0.407 | 
COc1cc(Nc2nccc(-c3cnc4c(c3)C(C)(C)CN4)n2)c(C)c(C(=O)NC2CN(C)C2)c1 [Compound 51] | 0.0069 |  | 0.112 | 
COc1cc(Nc2nccc(-c3cnc4c(c3)C(C)(C)CN4)n2)c(C)c(C(=O)NC2CCOCC2)c1 [Compound 105] | 0.0302 |  | 0.436 | 
COc1c(Nc2nccc(-c3cnc4c(c3)C(C)(C)CN4)n2)cccc1C(=O)NC1CCOCC1 [Compound 113] | 0.288 |  |  | 
CC1(C)CNc2ncc(-c3ccnc(Nc4ccc(C(=O)NC5CCOCC5)cc4C(F)F)n3)cc21 [Compound 110] | 0.129 |  | 2.34 | 
Cc1cc(C(=O)N2CCC(CCO)CC2)ccc1Nc1nccc(-c2cnc3c(c2)C(C)(C)CN3)n1 [Compound 53] | 0.0041 |  | 0.174 | 
